Data on 11 molecules can be found in patent publication US11679107B2 (Eisai R&D Management Co., Ltd., priority 2018, dated 2023).

Where two headings read alike, the source gives them in different places.

The conditions of series [1]: in vivo; cited from earlier work.
The next series has as its target T1, SF3b complexes (Homo sapiens, UniProt O75533+Q7RTV0).
T1 construct: endogenous in cells; host or cells: Nuclear extracts; A HeLa S3 extract preparation is described for the in vitro splicing assay
The series is described as follows: Scintillation proximity assay (SPA) with [3H]-labelled pladienolide probe. In kind it is binding. The settings on record: SF3B1 (WT); geometric mean; read-out: SPA-ATS GMean IC50 (nM) SF3B1 (WT). Put shortly:
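SF3b complexes captured from nuclear extracts on anti-SF3B1 antibody SPA beads; test compounds pre-incubated 30 min before 2.5 nM [3H]-pladienolide probe added, then 30 min incubation. Bound probe read by scintillation; values from non-linear regression of concentration–response curves.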
(In general: In a scintillation proximity assay essentially only radioactivity close to the scintillant gives light.)

Series [2] relates to Ad2 variant pre-mRNAs spliced in HeLa S3 nuclear extracts. The experiment in a line: In vitro splicing assay (IVS), RT-qPCR of spliced product. The format is biochemical. The settings on record: for IC50: geometric mean; for Ratio Ad2.1/2.2: ratio of IVS IC50 Ad2.1 to Ad2.2. In outline:
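Ad2 variant pre-mRNA (2 ng) with FTZΔi control RNA in HeLa S3 nuclear extract (8 μg) was pre-incubated with compound or DMSO for 15 min at 30 °C. Splicing ran 90 min at 30 °C after adding 0.5 mM ATP, creatine phosphate and MgCl2. Spliced product was quantified by TaqMan RT-qPCR, normalized to DMSO, and curve-fitted.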
In general terms: In qPCR the cycle at which signal appears reflects the starting amount.

Series [3] has as its system Panc 05.04 cells (SF3b K700E mutant). The experiment in a line: Cell proliferation and viability, CellTiter-Glo, 72 hours. The format is cell-based. The settings on record: for GI50: geometric mean. In outline:
(§1)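 Cells grown in RPMI-1640 with 10% FBS (Panc 05.04 with added insulin, 15% FBS total) were exposed to an 11-point half-log dilution, typically 10 μM–100 pM, at 0.1% DMSO for 72 h at 37 °C. ATP content was read by CellTiter-Glo luminescence. Percent inhibition was set against a time-zero plate and DMSO vehicle wells, on a −100% (cidal) to 100% (uninhibited growth) scale.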
In general terms: ATP-based viability assays read luminescence as a measure of living cells.

In series [4] the test system is NCI-H1568 cells (high MCL1). Described as above. In kind it is cell-based. The settings on record: for GI50: geometric mean. Put shortly:
as §1

Setting [5] is: Ad2.1 pre-mRNA substrate, read-out: qPCR-IVS-ATS GMean IC50 (nM) Ad2.1.
[6] abbreviates: Ad2.2 pre-mRNA substrate, read-out: qPCR-IVS-ATS GMean IC50 (nM) Ad2.2.
Where [7] appears, read: PANC0504.1 cells, 72 h, −100% cidal, 0% static, 100% maximal growth.
The mark [8] stands for this setting: Panc 05.04, 72 h, read-out: CTGlo-ATS GMean GI50 (nM) 72 h PANC0504.1, PANC0504.1 cells, 72 h.
The mark [9] stands for this setting: NCI-H1568, 72 h, read-out: CTGlo-ATS GMean GI50 (nM) 72 h NCIH1568.1, NCIH1568.1 cells, 72 h.
Where [10] appears, read: NCIH1568.1 cells, 72 h, −100% cidal, 0% static, 100% maximal growth.
The mark [11] stands for this setting: Panc 05.04, read-out: CTGlo-ATS GMean GI50 (nM) 72 h PANC0504.1, PANC0504.1 cells, 72 h.
Where [12] appears, read: NCI-H1568, read-out: CTGlo-ATS GMean GI50 (nM) 72 h NCIH1568.1, NCIH1568.1 cells, 72 h.
Setting [13] is: 72 h, PANC0504.1, -100% = cidal, 0% = static, 100% = uninhibited growth.
The mark [14] stands for this setting: 72 h, NCIH1568.1, -100% = cidal, 0% = static, 100% = uninhibited growth.

For the molecule tremelimumab, the plasma half-life result in series [1] is listed as “approximately 22 days”.
`C/C(=C\c1cc(F)cc(N2CCO[C@@H](C)C2)c1)[C@H]1OC(=O)C[C@H](O)CC[C@H](C)[C@@H](OC(=O)N2CCN(C)CC2)/C=C/[C@@H]1C` [Compound 69]: the results for the IC50 (at SF3b complexes; in series [2] (setting [5]); in series [2] (setting [6])) were 3.83 nM, 36.7 nM and 20.9 nM, respectively. For the same molecule, the “CTGlo-ATS Mean MinResponse % 72 h PANC0504.1” value in series [3] (setting [7]) is on record as −86.274%. In addition, the GI50 in series [3] (setting [8]) is 7.48 nM; in series [4] (setting [9]) it was 4.04 nM. Besides, the “CTGlo-ATS Mean MinResponse % 72 h NCIH1568.1” value in series [4] (setting [10]) is listed as −76.018%.
For the molecule `C/C(=C\c1cc(F)cc(N2CCOCC2)c1)[C@H]1OC(=O)C[C@@H](O)CC[C@@](C)(O)[C@@H](OC(=O)N2CCC(N3CCCCC3)CC2)/C=C/[C@@H]1C` [Compound 63], the IC50 at SF3b complexes turned out to be 12.3 nM; in series [2] (setting [5]), 18800 nM; in series [2] (setting [6]), 52 nM. Besides, the “CTGlo-ATS Mean MinResponse % 72 h PANC0504.1” value in series [3] (setting [7]) is reported as −96.440%. Moreover, the GI50 in series [3] (setting [11]) amounted to 41.2 nM; in series [4] (setting [12]), 39.3 nM. Also, in series [4] (setting [10]), the “CTGlo-ATS Mean MinResponse % 72 h NCIH1568.1” value is −50.769%.
As to `C/C(=C\c1cccc(NS(=O)(=O)C2CC2)c1)[C@H]1OC(=O)C[C@H](O)CC[C@H](C)[C@@H](OC(=O)N2CCN(C)CC2)/C=C/[C@@H]1C` [Compound 216, [(2S,3S,4E,6R,7S,10R)-2-[(E)-1-[3-(cyclopropylsulfonylamino)phenyl]prop-1-en-2-yl]-10-hydroxy-3,7-dimethyl-12-oxo-1-oxacyclododec-4-en-6-yl] 4-methylpiperazine-1-carboxylate], the half-maximal inhibitory concentration (IC50) is 3.32 nM on SF3b complexes, 11100 nM in series [2] (setting [5]) and 35.7 nM in series [2] (setting [6]). In addition, in series [2], the “Ratio Ad2.1/2.2” value worked out at 309.648. Further, the “CTGlo-ATS Mean MinResponse % 72 h PANC0504.1” value in series [3] (setting [13]) is on record as −85.005%. For the same molecule, the GI50 in series [3] (Panc 05.04, read-out: CTGlo-ATS GMean GI50 (nM) 72 h PANC0504.1, 72 h, PANC0504.1) amounted to 29 nM; in series [4] (NCI-H1568, read-out: CTGlo-ATS GMean GI50 (nM) 72 h NCIH1568.1, 72 h, NCIH1568.1), 47.2 nM. Besides, in series [4] (setting [14]), the “CTGlo-ATS Mean MinResponse % 72 h NCIH1568.1” value is on record as −32.014%.
With `C/C(=C\c1cc(F)cc(N2CCOCC2)c1)[C@H]1OC(=O)C[C@H](O)CC[C@H](C)[C@@H](OC(=O)N2CCN(C3CCC3)CC2)/C=C/[C@@H]1C` [Compound 26], the IC50 on SF3b complexes turned out to be 11.4 nM; in series [2] (setting [5]), 107 nM; in series [2] (setting [6]) it was 43.5 nM. In addition, in series [3] (setting [7]), the “CTGlo-ATS Mean MinResponse % 72 h PANC0504.1” value is recorded as −88.278%. For the same molecule, the GI50 came to 19 nM in series [3] (setting [8]) and 26.5 nM in series [4] (setting [9]). Further, the “CTGlo-ATS Mean MinResponse % 72 h NCIH1568.1” value in series [4] (setting [10]) is on record as −68.566%.
Consider `C/C(=C\c1cc(F)cc(N2CCN(C(=O)c3cn(C)cn3)CC2)c1)[C@H]1OC(=O)C[C@H](O)CC[C@H](C)[C@@H](OC(=O)N2CCN(C)CC2)/C=C/[C@@H]1C` [Compound 120], for which the IC50 came to 3.97 nM at SF3b complexes, 25.3 nM in series [2] (setting [5]) and 26.5 nM in series [2] (setting [6]). Further, the “CTGlo-ATS Mean MinResponse % 72 h PANC0504.1” value in series [3] (setting [7]) is −78.098%. Besides, the figures for the concentration for 50% growth inhibition (GI50) in series [3] (setting [8]) and in series [4] (setting [9]) were 9.42 nM and 11.2 nM, respectively. Also, the “CTGlo-ATS Mean MinResponse % 72 h NCIH1568.1” value in series [4] (setting [10]) was −75.164%.
For the molecule `C/C(=C\c1cc(F)cc(N2CCOCC2)c1)[C@H]1OC(=O)C[C@H](O)CC[C@H](C)[C@@H](OC(=O)N2CCCC(N(C)C)C2)/C=C/[C@@H]1C` (stereo partly shown) [Compound 40], the IC50 came out at 3.98 nM on SF3b complexes, 55.9 nM in series [2] (setting [5]) and 28.1 nM in series [2] (setting [6]). Also, in series [3] (setting [7]), the “CTGlo-ATS Mean MinResponse % 72 h PANC0504.1” value is given as −82.881%. The GI50 came to 7.75 nM in series [3] (setting [11]) and 13.3 nM in series [4] (setting [12]). Further, the “CTGlo-ATS Mean MinResponse % 72 h NCIH1568.1” value in series [4] (setting [10]) is reported as −72.259%.
With `C/C(=C\c1cc(F)cc(N2CCOC[C@@H]2C)c1)[C@H]1OC(=O)C[C@H](O)CC[C@H](C)[C@@H](OC(=O)N2CCN(C)CC2)/C=C/[C@@H]1C` [Compound 83], the IC50 on SF3b complexes amounted to 4.57 nM; in series [2] (setting [5]), 159 nM; in series [2] (setting [6]), 49 nM. In series [3] (setting [7]), the “CTGlo-ATS Mean MinResponse % 72 h PANC0504.1” value is −94.723%. The GI50 was 15.6 nM in series [3] (setting [11]) and 17.3 nM in series [4] (setting [12]). The “CTGlo-ATS Mean MinResponse % 72 h NCIH1568.1” value in series [4] (setting [10]) is −68.447%.
For `C/C(=C\c1cc(F)cc(-n2ccnc2)c1)[C@H]1OC(=O)C[C@H](O)CC[C@H](C)[C@@H](OC(=O)N2CCN(C)CC2)/C=C/[C@@H]1C` [Compound 60], the values for the IC50 (on SF3b complexes; in series [2] (setting [5]); in series [2] (setting [6])) were 2.99 nM, above 25000 nM and 55.5 nM, respectively. Further, in series [3] (setting [7]), the “CTGlo-ATS Mean MinResponse % 72 h PANC0504.1” value is on record as −87.159%. The GI50 is 26.7 nM in series [3] (setting [11]) and 29.9 nM in series [4] (setting [12]). The “CTGlo-ATS Mean MinResponse % 72 h NCIH1568.1” value in series [4] (setting [10]) was −42.456%.
On to `C/C(=C\c1cc(F)cc(N2CCN(CCO)C(=O)C2)c1)[C@H]1OC(=O)C[C@H](O)CC[C@H](C)[C@@H](OC(=O)N2CCN(C)CC2)/C=C/[C@@H]1C` [Compound 104], for which the half-maximal inhibitory concentration (IC50) at SF3b complexes worked out at 2.1 nM; in series [2] (setting [5]), 31.9 nM; in series [2] (setting [6]) it was 13.9 nM. Moreover, the “CTGlo-ATS Mean MinResponse % 72 h PANC0504.1” value in series [3] (setting [7]) is recorded as −86.795%. The GI50 was determined as 4.58 nM in series [3] (setting [11]) and 5.1 nM in series [4] (setting [12]). Also, the “CTGlo-ATS Mean MinResponse % 72 h NCIH1568.1” value in series [4] (setting [10]) was −69.040%.
Take `C/C(=C\c1cccc(COC(=O)N(C)C)c1)[C@H]1OC(=O)C[C@H](O)CC[C@H](C)[C@@H](OC(=O)N2CCN(C)CC2)/C=C/[C@@H]1C` [Compound 258, [(2S,3S,4E,6R,7S,10R)-2-[(E)-1-[3-(dimethylcarbamoyloxymethyl)phenyl]prop-1-en-2-yl]-10-hydroxy-3,7-dimethyl-12-oxo-1-oxacyclododec-4-en-6-yl] 4-methylpiperazine-1-carboxylate]: the results for the half-maximal inhibitory concentration (IC50) (on SF3b complexes; in series [2] (setting [5]); in series [2] (setting [6])) were 11.7 nM, above 25000 nM and 73.8 nM, respectively. Further, in series [2], the “Ratio Ad2.1/2.2” value came out at 338.606. Also, the “CTGlo-ATS Mean MinResponse % 72 h PANC0504.1” value in series [3] (setting [13]) is reported as −65.918%. Moreover, the 50% growth inhibitory concentration (GI50) in series [3] (Panc 05.04, 72 h, read-out: CTGlo-ATS GMean GI50 (nM) 72 h PANC0504.1, 72 h, PANC0504.1) worked out at 28.7 nM; in series [4] (NCI-H1568, 72 h, read-out: CTGlo-ATS GMean GI50 (nM) 72 h NCIH1568.1, 72 h, NCIH1568.1) it was 29.8 nM. The “CTGlo-ATS Mean MinResponse % 72 h NCIH1568.1” value in series [4] (setting [14]) is recorded as −12.669%.

Broadly, the IC50 is the concentration that gives 50% inhibition. The GI50 is the concentration giving 50% growth inhibition.
